Patent US9416095B2, “Salts, crystals, complexes, and derivatives of threonine diacetic acid, a process to prepare threonine diacetic acid, and the use thereof” (Akzo Nobel Chemicals International B.V., priority 2013, dated 2016)

Legend:
Type in all cases: physicochemical
[1] = Cyclisation to the 6-oxomorpholine ring-closed form in DMSO-d6/TFA, monitored by 1H NMR; conditions: 30% aqueous disodium salt in DMSO-d6/TFA 80:20 w/w, ambient temperature
Method: A 30% aqueous solution of disodium threonine diacetate (129 mg) was mixed well with a DMSO-d6/TFA solution (2761 mg, 80:20 w/w) and changes in the obtained mixture were monitored by ^1H NMR at ambient temperature. The steady state was reached after 40 minutes with a conversion of 90% of THDA to cyclic-THDA.
A 30% aqueous solution of disodium serine diacetate (136 mg) was mixed well with a DMSO-d6/TFA solution (2911 mg, 80:20 w/w) and changes in the obtained mixture were monitored by ^1H NMR at ambient temperature. The steady state was reached after 100 minutes with a conversion of 43% of SerDA to cyclic-SerDA. The above experiments support that THDA can be used in applications that relate to dissolving carbonate or sequestering iron, such as use in the oil field (e.g. dissolving CaCO3 and controlling iron in subterranean treatment), use in a feed, food or micronutrient composition (e.g. complexing iron and calcium for delivery to growing substrates), use in detergents and water treatments (e.g. sequestering calcium from water to soften water and sequestering iron present in stains), and many more uses.

[2] = Potentiometric titration with FeCl3, iron total sequestering value (Fe-TSV)
Text: Potentiometric titration of THDA with FeCl3 at pH 3-4 and 11.5 gave the iron total sequestering values (Fe-TSV) of 37.8 and 27.8%, respectively. […] All Fe(III) is bound by THDA at pH 3-4.

[3] = Dissolving insoluble calcium salts (CaCO3 stirred with THDA.Na3 solution, calcium in filtrate by ICP)
Method: A mixture of CaCO3 (1.26 g, […]), 37.8 wt % THDA.Na3 in water (15 g, 18.8 mM), and water (45 g) was vigorously stirred for 6 h. The experiment was performed at room temperature and at 50° C. Samples (1 ml) were taken from the mixture every 0.5 h and filtered through a 0.45 μm filter. The concentration of calcium in the filtered samples was determined using the ICP method.

| Structure (SMILES) | conversion to cyclic form at steady state [1] | time to reach steady state of cyclisation [1] | iron total sequestering value (Fe-TSV) ([2]; pH 3-4) | iron total sequestering value (Fe-TSV) ([2]; pH 11.5) | speed of CaCO3 dissolution at 50° C. versus room temperature ([3]; 50° C.) | dissolution of CaCO3 ([3]; CaCO3 12.6 mM, THDA.Na3 18.8 mM in water, stirred 6 h, room temperature and 50° C.) |
| --- | --- | --- | --- | --- | --- | --- |
| O=C(O)CN(CC(=O)O)[C@@H](CO)C(=O)O [SerDA, serine-N,N-diacetic acid, reference compound] | 43% | 100 min | – | – | – | – |
| C[C@@H](O)[C@@H](C(=O)O)N(CC(=O)O)CC(=O)O [THDA, threonine-N,N-diacetic acid] | 90% | 40 min | 37.8% | 27.8% | – | – |
| C[C@@H](O)[C@@H](C(=O)O)N(CC(=O)O)CC(=O)O.[Na+].[Na+].[Na+] [THDA.Na3, Trisodium Threonine Diacetate] | – | – | – | – | noticeably faster | significant amount |
